Broadly, the IC50 is the concentration that gives 50% inhibition.

Here are results for 1 compound from patent publication US20230219946A1, “PYRIMIDIN-4(3H)-ONE HETEROCYCLIC COMPOUND, PREPARATION METHOD THEREOF, AND PHARMACEUTICAL USE THEREOF” (Beijing Innocare Pharma Tech Co., Ltd., priority 2020, published 2023).

Counter-ions that a name gives are not always drawn.

The target in series [1] is T1, Recombinant human SHP2 full-length protein (Homo sapiens, UniProt Q06124).
T1 construct: Recombinant human SHP2 full-length protein
T1 sequence (Q06124 1-593): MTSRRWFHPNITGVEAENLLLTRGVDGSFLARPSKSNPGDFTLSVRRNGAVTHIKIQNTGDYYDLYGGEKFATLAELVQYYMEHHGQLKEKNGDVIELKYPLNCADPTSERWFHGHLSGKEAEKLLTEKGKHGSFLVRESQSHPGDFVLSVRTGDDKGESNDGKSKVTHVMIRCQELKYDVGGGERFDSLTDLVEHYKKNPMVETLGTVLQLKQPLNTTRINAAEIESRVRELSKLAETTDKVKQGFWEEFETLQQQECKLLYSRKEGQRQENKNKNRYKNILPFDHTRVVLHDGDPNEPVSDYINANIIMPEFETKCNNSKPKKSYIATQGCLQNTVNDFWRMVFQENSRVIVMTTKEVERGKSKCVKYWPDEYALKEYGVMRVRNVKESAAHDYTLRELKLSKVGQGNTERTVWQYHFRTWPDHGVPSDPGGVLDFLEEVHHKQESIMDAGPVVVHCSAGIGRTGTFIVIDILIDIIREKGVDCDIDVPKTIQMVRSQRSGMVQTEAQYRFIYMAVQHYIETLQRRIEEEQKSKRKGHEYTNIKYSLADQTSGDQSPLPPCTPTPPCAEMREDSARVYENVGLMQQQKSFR
Kind of series: SHP2 activity inhibition measurement (fluorescence detection, surrogate substrate DiFMUP). In kind it is biochemical. Conditions: recombinant human SHP2 full-length protein activated with diphosphopeptide. The protocol:
SHP2 activity inhibition measurement
The effect of the compound of the present invention on SHP2 activity is evaluated by rapid fluorescence detection method using the surrogate substrate DiFMUP.
(§1) The experimental method is outlined as follows:
Recombinant human SHP2 full-length protein was expressed and purified by the protein purification and identification platform of Tsinghua University; diphosphopeptide (H2N-LN(pY)IDLDLV-(dPEG8)LST(pY)ASINFQK-amide) was synthesized by Nanjing GenScript Biotechnology Co., Ltd.; surrogate substrate DiFMUP was purchased from Thermo Fisher Scientific (Cat. No. D6567); reaction buffer contained the following components: 60 mM HEPES (pH 7.2), 75 mM NaCl, 75 mM KCl, 1 mM EDTA, 0.05% TWEEN 20, and 5 mM DTT.
The compound was dissolved in DMSO (Sigma, Cat. No. D5879) and diluted to 100 μM. The resulting solution was serially diluted 4-fold with DMSO to a minimum concentration of 6.1 nM, and each concentration point was diluted 25-fold with the reaction buffer.
10 μL of compound solution and 10 μL of 0.25 nM SHP2 protein solution were added to a 384-well microplate (Corning, Cat. No. 3575), mixed well, and incubated at room temperature for 30 min. 10 μL of 0.5 μM diphosphopeptide (dissolved in the reaction buffer) was added, mixed well, and incubated at room temperature for 30 to 60 min. Subsequently, 10 μL of 60 μM DiFMUP solution (dissolved in the reaction buffer) was added, mixed well, and let stand at room temperature. After 30 min, fluorescence signals were measured at 340 nm (excitation wavelength)/450 nm (emission wavelength) using a microplate reader (EnSpire, Perkin Elmer). The fluorescence intensity value was positively correlated with the degree of dephosphorylation of the substrate, thereby reflecting the catalytic activity of SHP2. […] An inhibition curve of the compound was plotted by XLfit software and the inhibitory IC50 was calculated.

Series [2] has as its system human non-small cell lung cancer cell line NCI-H358. As to the kind of experiment: NCI-H358 cell proliferation inhibition (luminescent cell viability assay, CTG). As to conditions: 120 h, NCI-H358 cells, 5 days, CellTiter-Glo. In kind it is cell-based. Here is the method: Determination of NCI-H358 cell proliferation inhibition
The effect of the compound of the present invention on proliferation of human non-small cell lung cancer cell line NCI-H358 is evaluated by luminescent cell viability assay.
as §1
The compound was dissolved in DMSO (Sigma, Cat. No. D5879) and diluted to 5 mM. The resulting solution was serially diluted 4-fold with DMSO to a minimum concentration of […], and each concentration point was diluted 50-fold with RPMI 1640 Medium (Thermo Fisher Scientific, Cat. No. 11995073). When the IC50 value of the compound was low, the initial concentration of the compound was further reduced.
NCI-H358 cells (ATCC, Cat. No. CRL-5807) were cultured in RPMI 1640 Complete Medium [RPMI 1640 Medium was supplemented with 10% FBS (GBICO, Cat. No. 10099-141) and 100 units/mL Penicillin-Streptomycin (Thermo Fisher Scientific, Cat. No. 15140122)]. The cells (15,000 cells/mL) were seeded in 90 μL of Complete Medium on a 96-well plate. After culturing overnight, 10 μL of compound solution was added to each well and cultured at 37° C. in a 5% CO2 incubator for 5 days. According to the instruction from the CellTilter-Glo (CTG) kit (Promega, Cat. No. G7572), the cell culture plate was removed from incubator and equilibrated to room temperature. The cells were lysed fully with 50 μL of CTG reagent and placed at room temperature for 10 min. A luminescence signal was read by the microplate reader (EnVision, Perkin Elmer). […] An inhibition curve of the compound was plotted by XLfit software and the inhibitory IC50 was calculated.
In general terms: ATP-based viability assays read luminescence as a measure of living cells.

The target of another series is hERG potassium channel (Homo sapiens, UniProt Q12809). As to conditions: 3 μM test compound, whole-cell patch clamp, HEK293-hERG, room temperature. Here is the method:
All electrophysiological experiments were conducted at room temperature.

hERG potassium channel, sequence (Q12809 whole entry): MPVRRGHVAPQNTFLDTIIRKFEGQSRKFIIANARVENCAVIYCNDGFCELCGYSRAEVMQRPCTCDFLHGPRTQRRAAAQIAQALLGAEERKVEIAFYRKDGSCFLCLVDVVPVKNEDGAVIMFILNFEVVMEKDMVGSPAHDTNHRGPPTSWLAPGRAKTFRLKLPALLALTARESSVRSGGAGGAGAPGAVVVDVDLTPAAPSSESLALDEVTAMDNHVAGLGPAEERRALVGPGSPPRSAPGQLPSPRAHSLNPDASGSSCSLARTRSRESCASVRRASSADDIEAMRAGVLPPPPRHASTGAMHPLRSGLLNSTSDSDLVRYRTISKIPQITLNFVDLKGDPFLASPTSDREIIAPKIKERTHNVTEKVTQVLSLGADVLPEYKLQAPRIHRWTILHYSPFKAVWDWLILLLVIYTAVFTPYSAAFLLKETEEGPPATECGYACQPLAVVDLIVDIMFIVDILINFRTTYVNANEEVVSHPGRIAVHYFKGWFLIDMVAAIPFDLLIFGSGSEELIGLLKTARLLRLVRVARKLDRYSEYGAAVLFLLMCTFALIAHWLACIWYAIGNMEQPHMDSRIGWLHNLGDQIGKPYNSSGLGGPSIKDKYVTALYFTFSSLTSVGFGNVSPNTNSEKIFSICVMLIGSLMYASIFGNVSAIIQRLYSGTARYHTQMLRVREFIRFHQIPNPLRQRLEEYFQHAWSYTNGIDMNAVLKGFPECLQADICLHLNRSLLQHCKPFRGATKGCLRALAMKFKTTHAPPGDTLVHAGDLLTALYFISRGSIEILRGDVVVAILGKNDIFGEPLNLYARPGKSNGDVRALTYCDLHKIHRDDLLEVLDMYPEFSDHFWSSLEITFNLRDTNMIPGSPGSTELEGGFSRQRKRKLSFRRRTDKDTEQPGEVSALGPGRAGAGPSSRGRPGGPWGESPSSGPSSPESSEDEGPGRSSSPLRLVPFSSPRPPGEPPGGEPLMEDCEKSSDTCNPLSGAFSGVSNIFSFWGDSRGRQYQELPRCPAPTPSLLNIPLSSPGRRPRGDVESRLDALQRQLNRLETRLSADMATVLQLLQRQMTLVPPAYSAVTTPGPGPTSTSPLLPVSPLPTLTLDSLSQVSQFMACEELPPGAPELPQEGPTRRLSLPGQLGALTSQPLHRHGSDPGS

As to `Cn1cc2c(Cl)c(Sc3cnc(N4CCC5(CCC[C@H]5N)CC4)n(C)c3=O)ccc2n1` [Compound 7, (R)-2-(1-amino-8-azaspiro[4.5]decan-8-yl)-5-((4-chloro-2-methyl-2H-indazole-5-yl)thio)-3-methylpyrimidin-4(3H)-one hydrochloride], the IC50 in series [1] amounted to 12 nM; in series [2] it was 575 nM. Moreover, on hERG potassium channel, the “hERG current inhibition percentage at 3 μM solubility (n = 2)” value was 10%.
